The target in data set [1] is T1, Broad substrate specificity ATP-binding cassette transporter ABCG2 (Homo sapiens, UniProt Q9UNQ0).
T1 sequence (Q9UNQ0 whole entry): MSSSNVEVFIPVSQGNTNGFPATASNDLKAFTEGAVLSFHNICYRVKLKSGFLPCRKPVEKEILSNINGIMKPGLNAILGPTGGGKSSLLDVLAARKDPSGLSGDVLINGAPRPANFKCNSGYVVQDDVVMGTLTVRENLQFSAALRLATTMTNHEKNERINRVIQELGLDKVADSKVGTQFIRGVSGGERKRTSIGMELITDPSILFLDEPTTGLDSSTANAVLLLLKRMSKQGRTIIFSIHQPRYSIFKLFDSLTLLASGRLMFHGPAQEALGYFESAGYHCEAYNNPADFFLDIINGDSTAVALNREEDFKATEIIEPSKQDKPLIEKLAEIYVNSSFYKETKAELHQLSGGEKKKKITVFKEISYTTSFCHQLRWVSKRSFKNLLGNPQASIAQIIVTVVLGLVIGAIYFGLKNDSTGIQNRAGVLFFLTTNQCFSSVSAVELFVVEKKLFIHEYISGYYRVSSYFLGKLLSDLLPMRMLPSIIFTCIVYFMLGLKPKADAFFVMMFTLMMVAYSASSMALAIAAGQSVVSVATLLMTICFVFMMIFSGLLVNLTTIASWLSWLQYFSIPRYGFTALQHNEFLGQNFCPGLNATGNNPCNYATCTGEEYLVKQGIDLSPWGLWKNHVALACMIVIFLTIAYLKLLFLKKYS
Put plainly: TP_TRANSPORTER: intracellular accumulation in BCRP-transfected PC-13 cells. Format: functional, cell-based.

Data set [2] addresses T2, Broad substrate specificity ATP-binding cassette transporter ABCG2 (Mus musculus, UniProt Q7TMS5).
T2 sequence (Q7TMS5 whole entry): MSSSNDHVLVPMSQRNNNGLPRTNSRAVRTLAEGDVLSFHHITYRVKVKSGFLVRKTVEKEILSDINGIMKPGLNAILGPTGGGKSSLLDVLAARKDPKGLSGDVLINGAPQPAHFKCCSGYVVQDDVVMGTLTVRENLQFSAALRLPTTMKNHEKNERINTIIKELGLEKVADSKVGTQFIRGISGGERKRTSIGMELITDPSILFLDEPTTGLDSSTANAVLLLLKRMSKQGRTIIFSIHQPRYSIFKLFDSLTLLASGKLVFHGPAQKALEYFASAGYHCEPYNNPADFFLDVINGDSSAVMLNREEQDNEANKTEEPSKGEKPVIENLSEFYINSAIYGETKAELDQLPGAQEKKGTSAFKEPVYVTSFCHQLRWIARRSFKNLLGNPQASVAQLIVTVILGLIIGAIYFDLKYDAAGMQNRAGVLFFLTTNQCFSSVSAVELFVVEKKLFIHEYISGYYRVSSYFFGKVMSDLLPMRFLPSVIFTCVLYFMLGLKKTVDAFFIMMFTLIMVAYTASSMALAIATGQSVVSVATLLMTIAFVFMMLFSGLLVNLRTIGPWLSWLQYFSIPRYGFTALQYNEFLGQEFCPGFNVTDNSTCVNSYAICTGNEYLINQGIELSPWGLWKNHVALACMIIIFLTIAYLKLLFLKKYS
Put plainly: TP_TRANSPORTER: intracellular accumulation in LY and LY/NR2 cells. Format: functional, cell-based.

Molecules are shown by their SMILES.

On to `O=C1c2c(c3c4ccc(O)cc4n([C@@H]4O[C@H](CO)[C@@H](O)[C@H](O)[C@H]4O)c3c3[nH]c4cc(O)ccc4c23)C(=O)N1NC(CO)CO` [EDOTECARIN], for which the Activity entry in data set [1] is “substrate [+]”.

With `O=CNN1C(=O)c2c(c3c4cccc(O)c4n([C@@H]4O[C@H](CO)[C@@H](O)[C@H](O)[C@H]4O)c3c3[nH]c4c(O)cccc4c23)C1=O`, the Activity entry in data set [2] was “substrate [+]”.

(Values after ChEMBL document CHEMBL2074441, “Identification of breast cancer resistant protein/mitoxantrone resistance/placenta-specific, ATP-binding cassette transporter as a transporter of NB-506 and J-107088, topoisomerase I inhibitors with an indolocarbazole structure” (Cancer Res, 2001).)
